Consider 22 molecules from ChEMBL document CHEMBL1201862, “PubChem BioAssay data set” (2004).

In general, EC50 refers to the concentration that produces a half-maximal response. The term IC50 denotes the point on the concentration scale where inhibition reaches its midpoint. In general, AC50 refers to the midpoint of the concentration-response curve, whichever way the signal moves.

A short description of assay [1]: HPDE-C7 pancreatic duct cell viability loss – fluorescence, HTS (AID 430). It counts as functional, cell-based. The note with it: Homo sapiens.
Assay [2] is described as follows: viability loss of HPDE-C7K cells – cell-based, fluorescence, HTS, primary screen (AID 431). It counts as functional. The note with it: Homo sapiens.
The nature of assay [3]: Luminescence Cell-Based Dose Response to Identify Activators of 5'UTR Stem-Loop Driven Prion Protein mRNA Translation in H4-C Neuroglioblastoma Cells. [Related pubchem assays: 1829 (Project Summary), 1814 (Primary HTS)]. In kind it is functional.
A short description of assay [4]: Luminescence Cell-Based Dose Response HTS to Identify Activators of Luciferase Translation or Activity in H4 […] Cells. [Related pubchem assays: 1829 (Project Summary), 1814 (Primary HTS)]. It counts as functional.
The subject of assay [5] is H4. The assay can be described thus: Luminescence Cell-Based Dose Response HTS to Identify Activators of 5'UTR Stem-Loop Driven Prion Protein mRNA Translation in H4 Neuroglioblastoma Cells. [Related pubchem assays: 1829 (Project Summary), 1814 (Primary HTS)]. In kind it is functional. The following applies: Homo sapiens.
Assay [6] in a line: Luminescence Cell-Based Dose Response to Identify Activators of Luciferase Translation or Activity in H4-C Neuroglioblastoma Cells. [Related pubchem assays: 1829 (Project Summary), 1814 (Primary HTS)]. It counts as functional.
Assay [7] can be described thus: Luminescence Cell-Based Dose Confirmation to Identify Activators of 5'UTR Stem-Loop Driven Alpha-Synuclein mRNA Translation in H4 Neuroglioblastoma Cells. [Related pubchem assays: 1829 (Project Summary), 1814 (Primary HTS)]. In kind it is functional.
Assay [8] concerns the target Prothrombin (Homo sapiens, UniProt P00734). Nature of the assay: Thrombin 1536 HTS Dose Response Confirmation. [Related pubchem assays: 1046 (Thrombin 1536 HTS; hits were confirmed in this assay)]. In kind it is functional.
A short description of assay [9]: toxicity toward HepG2 liver cells – cell-based, plate reader, cherry-pick, antagonist series, cytotoxicity control, dose response (AID 743416). It counts as functional.
Assay [10] is described as follows: blockers of bursicon-stimulated LGR2 cAMP reporter – cell-based, HEK293, CRE-luciferase reporter, cherry pick, set 2, dose response (AID 743343).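 Also: transfected cells were stimulated with diluted bursicon conditioned medium after compound addition.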 In kind it is functional. In general terms: In a reporter assay the amount or activity of a reporter protein is the signal.
Assay [11] can be described thus: blockade of melanocortin 4 receptor signaling – cell-based, plate reader, cherry pick, counter-screen for LGR2 antagonist project, dose response (AID 743444).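 Also: transfected HEK 293 cells stimulated with alpha-MSH peptide; potency of inhibitors of the alpha-MSH evoked signal.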 It counts as functional.
The nature of assay [12]: Luminescence Cell-Based Dose Retest to Confirm Inhibitors of Cancer Stem Cells. [Related pubchem assays (depositor defined):AID2717, AID2721]. In kind it is functional. The note with it: Homo sapiens.
Assay [13] is described as follows: Luminescence Cell-Based Dose Confirmation HTS to Identify Activators of 5'UTR Stem-Loop Driven Alpha-Synuclein mRNA Translation in H4 Neuroglioblastoma Cells. [Related pubchem assays: 1829 (Project Summary), 1814 (Primary HTS)]. In kind it is functional.
Assay [14] deals with T1, Microphthalmia-associated transcription factor (Homo sapiens, UniProt O75030).
T1 sequence (O75030 whole entry): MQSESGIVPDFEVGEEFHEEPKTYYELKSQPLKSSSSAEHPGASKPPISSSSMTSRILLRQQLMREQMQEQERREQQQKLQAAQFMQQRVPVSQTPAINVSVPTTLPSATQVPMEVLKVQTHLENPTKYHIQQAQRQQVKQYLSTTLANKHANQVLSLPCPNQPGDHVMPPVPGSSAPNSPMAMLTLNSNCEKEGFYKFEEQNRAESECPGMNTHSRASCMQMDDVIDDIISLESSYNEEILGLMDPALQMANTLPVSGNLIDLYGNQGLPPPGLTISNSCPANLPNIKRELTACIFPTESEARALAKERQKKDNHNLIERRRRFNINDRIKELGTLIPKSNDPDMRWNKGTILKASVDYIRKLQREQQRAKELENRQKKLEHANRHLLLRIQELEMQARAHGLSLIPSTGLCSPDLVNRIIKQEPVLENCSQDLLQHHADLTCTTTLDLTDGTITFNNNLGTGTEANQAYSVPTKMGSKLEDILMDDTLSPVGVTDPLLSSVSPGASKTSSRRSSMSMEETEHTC
The assay can be described thus: reducers of TRPM1 reporter luminescence, concentration series – cell-based, SK-MEL-5, cherry-picked, set 3, MITF inhibitor project, dose response (AID 493073).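 Also: SK-MEL-5 melanoma cells with luciferase driven by the MITF target TRPM1 promoter.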 It counts as functional.

Assay [15] is described as follows: growth inhibition of yeast DHODH-expressing 3D7 parasites – SYBR Green, dry powder samples, dose response (AID 1159570).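 Also: parasite growth measured after 72 hours of compound exposure.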 In kind it is functional, cell-based.
A short description of assay [16]: toxicity to human HepG2 hepatoma cells – cell-based, plate reader, dry powder samples, cytotoxicity control, dose response (AID 1159569).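 Also: inhibitor potency with signal falling toward the positive control level.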 It counts as functional.
Assay [17] can be described thus: P. falciparum Dd2 growth inhibitors, dose response, SYBR Green, cherry-picked samples (AID 1159567). In kind it is functional, cell-based.
Assay [18] in a line: Dd2 malaria parasite growth inhibition potency – SYBR Green, dry powder samples, dose response (AID 1159566).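 Also: potency for growth inhibition with lower SYBR green DNA signal.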 In kind it is functional, cell-based.
Assay [19] is described as follows: growth inhibition of PfATP4-mutant resistant parasites – NITD609-resistant line, SYBR Green, dry powder, dose response (AID 1159571).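 Also: parasites synchronized at ring stage by sorbitol before testing.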 It counts as functional, cell-based.
Assay [20] can be described thus: Dd2 parasite growth inhibition in erythrocytes – SYBR Green, dry powder samples, set 9, dose response (AID 1159568). It counts as functional, cell-based.

Each structure is given as a SMILES string. Calls of active or inactive are those of the source.

Regarding `CCCCc1ccc(Nc2nc(O)cc(CCC)n2)cc1`, the EC50 in assay [1] was 10800 nM (active); in [2], 6750 nM (active).

On to `Cc1[nH]c2ccccc2c1C(O)CN1CCN(c2cccc(C(F)(F)F)c2)CC1` (stereo not drawn), for which the half-maximal effective concentration (EC50) in [1] was 7140 nM (active); in assay [2], 6670 nM (active).

With `COCCn1c(C)cc(C(=O)COC(=O)c2ccc3ncsc3c2)c1C`, the EC50 in assay [3] is 1090 nM (active); in assay [4], 155 nM (active); in [5], 132 nM (active); in assay [6], 343 nM (active); in [7], 364 nM (active).

On to `CC(=O)c1c(C)[nH]c(C(=O)NCCC2=CCCCC2)c1C`, for which the EC50 in assay [3] was 862 nM (active); in assay [4] it was < 100 nM (inconclusive); in assay [5], 12300 nM (active); in [6] it was > 12000 nM (not active); in assay [7] it was 468 nM (active).

On to `CC(Sc1nncn1C)C(=O)NCc1ccc2c(c1)OCO2` (stereo not drawn), for which the IC50 in [8] is > 50000 nM (not active).

With `Cc1cc(C(=O)CSc2n[nH]c(N)n2)c(C)n1-c1ccccc1`, the concentration for a half-maximal effect (EC50) in assay [3] was 1030 nM (active); in assay [4], < 100 nM (active); in assay [5] it was 5580 nM (active); in assay [6], 687 nM (active); in [7], 6750 nM (active).

As to `Cc1csc(NC(=O)c2cnc3ccccc3n2)n1`, the AC50 in assay [9] was > 52000 nM (inactive); in assay [10] it was 7510 nM (active); in assay [11], 16900 nM (active).

As to `Cc1c(N(C)C(=O)C2CCCN2S(=O)(=O)c2ccccc2)c(=O)n(-c2ccccc2)n1C` (stereo not drawn), in assay [8], the IC50 was > 50000 nM (not active).

For `N#C/C(=C\c1ccc[nH]1)Sc1nc2ccccc2s1`, the concentration for a half-maximal effect (EC50) in assay [1] and in assay [2] was > 20000 nM (not active) throughout.

Consider `Cc1nn(Cc2ccc(C(=O)Nc3nccs3)cc2)c(C)c1Cl`, for which the IC50 in assay [8] was > 50000 nM (not active). Besides, the AC50 in [12] is 747 nM (active).

For the molecule `CC(NC(=O)Nc1ccc2c(c1)OCO2)C1CCCO1` (stereo not drawn), the EC50 in [3] was > 12000 nM (not active); in assay [13], < 100 nM (active); in [4], 8120 nM (active); in assay [5], 33000 nM (active); in assay [6], > 12000 nM (not active); in assay [7], > 12000 nM (not active).

For the molecule `O=C1OC(c2ccccc2)=C/C1=C/N1CCCCC1`, the EC50 in assay [3] is 426 nM (active); in [13] it was < 100 nM (active); in assay [4], 129 nM (inconclusive); in assay [5] it was 142 nM (active); in [6] it was 352 nM (active); in [7] it was 306 nM (active).

As to `Nc1cccc2c1C(=O)N(C(=O)c1ccco1)C2=O`, in [8], the IC50 is 8620 nM (active).

For `COc1cc2c(cc1O)C(SC)=NC(C)(C)C2`, the EC50 is 14100 nM (active) in [1] and 13600 nM (active) in assay [2]. In assay [14], the half-maximal activity concentration (AC50) was 11300 nM (active).

On to `CC1=C(C#N)C(=O)N(C)C(=O)/C1=N/Nc1ccc(S(N)(=O)=O)cc1`, for which the concentration for half-maximal inhibition (IC50) in assay [8] was > 50000 nM (not active).

In the case of `O=C(/N=C1\SCC(=O)N1c1ccccc1Cl)c1ccccc1`, the EC50 is 1860 nM (active) in assay [3]; < 100 nM (active) in assay [13]; 11100 nM (active) in [4]; 50500 nM (active) in [5]; > 12000 nM (not active) in assay [6]; 717 nM (active) in assay [7].

As to `CO[C@@H]1CN(C)C(=O)c2ccc(NC(=O)c3nc4ccccc4s3)cc2OC[C@@H](C)N(Cc2ccccc2)C[C@H]1C`, the concentration at half-maximal activity (AC50) in assay [15] is 1750 nM (active); in assay [16], > 100000 nM (inactive); in [17] it was 1120 nM (active); in [18], 829 nM (active); in [19] it was 1080 nM (active).

For `COc1ccc(S(=O)(=O)N2CCC3(CC2)CN(Cc2ccncc2)[C@H](CO)c2[nH]c4cc(OC)ccc4c23)cc1`, the AC50 in assay [15] was 2140 nM (active); in assay [16], 28500 nM (active); in assay [17], 1890 nM (active); in assay [18] it was 1720 nM (active); in assay [19] it was 2220 nM (active).

`O=C(Cc1ccccc1)N1CC(=O)N2[C@H](CO)[C@H](c3ccc(C#CCc4ccccc4)cc3)[C@H]2C1`: the AC50 is 1730 nM (active) in assay [15]; 22500 nM (active) in [16]; 354 nM (active) in assay [20]; 918 nM (active) in assay [17]; 358 nM (active) in [18]; 1180 nM (active) in [19].

In the case of `O=C(Nc1cccc(F)c1)N1CCCCN2[C@H](CO)[C@H](c3ccc(C#Cc4ccccc4)cc3)[C@@H]2C1`, the AC50 is 38.3 nM (active) in assay [15]; > 100000 nM (inactive) in assay [16]; < 300 nM (active) in assay [17]; 43.7 nM (active) in assay [18]; 55.7 nM (active) in assay [19].

For `CCCC#Cc1ccc2c(c1)[C@H]1[C@H](CCN1Cc1ccccc1F)[C@@H](CO)N2`, the AC50 was 5850 nM (active) in assay [15]; 71500 nM (active) in assay [16]; 2780 nM (active) in [17]; 2390 nM (active) in [18]; 2370 nM (active) in assay [19].

Consider `COc1ccc(C(=O)n2nc(-c3ccco3)nc2N)cc1OC`, for which, in assay [8], the half-maximal inhibitory concentration (IC50) is 2230 nM (active).
